Test results reported in PMC5866837, “Towards a generic physiologically based kinetic model to predict in vivo uterotrophic responses in rats by reverse dosimetry of in vitro estrogenicity data” (Archives of Toxicology, 2017).
Read-outs that look alike come from different tables or passages of the source.

What was measured:
[1] = Substrate depletion approach, in vitro clearance (CLint) with rat liver S9; assay type: in vitro ADME; details: for microsomal CLint at 3 µM / CLint in liver S9 at 3 µM: Sprague-Dawley, rat, liver S9 fraction; for CLint in liver S9 at 3 µM: 3 µM substrate
Excerpt: To develop a generic model, a fast and efficient approach needs to be applied to determine the hepatic clearance. To this end, a substrate depletion approach was used, as described by others (Jones and Houston [2004]; Obach [1999]; Obach and Reed-Hagen [2002]). Metabolic breakdown of the parent compound, referred to as “substrate depletion” is used to measure in vitro CLint of the parent compound, where the consumption rate of the parent compound using hepatic microsomes, hepatic S9 fractions or hepatocytes, is measured over a range of incubation times under linear conditions with respect to protein concentration and substrate concentration (Jones and Houston [2004]).
The CLint of the parent compounds via phase I and phase II metabolism was determined in incubations with liver S9 fraction from both male and female Sprague–Dawley rats, in the presence of all relevant co-factors NADPH, UDPGA, PAPS and acetyl CoA. To investigate whether the in vitro CLint value derived from incubations for individual reactions (with individual co-factors) is similar as the CLint value derived from incubations with all the co-factors together in one mixture, two approaches were applied. In the first approach, the parent compound was incubated with individual co-factors in Eppendorf tubes applying a final volume of 200 µL containing either 3 mM NADPH, 5 mM UDPGA (also including 5 mM MgCl2 and 0.025 mg/ml alamethicin), 0.2 mM PAPS, or 0.5 mM acetyl CoA, with 0.5 mg/ml liver S9 in 0.1 M potassium phosphate (pH 7.4) buffer. After pre-incubating the mixtures at 37 °C for 1 min, the reactions were started by adding 3 µM (final concentration) of the parent compound from a 100 times concentrated stock solution dissolved in DMSO. In the second approach, it was tested whether the methodology could be simplified by adding all the co-factors to one incubation mixture and the parent compound after pre-incubation. For both approaches, 14 time points were selected at which the reaction was terminated, being 0, 1, 2, 3, 4, 5, 7, 8.5, 10, 15, 20, 25, 30 and 45 min. To terminate the reaction 100 µL cold acetonitrile (ACN) was added to the mixture and the Eppendorf tubes were put on ice for 30 min. Subsequently, tubes were centrifuged at 15,000 rpm for 5 min (CT 15RE, Hitachi Koki Co., Ltd) and the supernatant was collected for UPLC analysis. For each incubation time point, a corresponding control was included, which was an incubation performed in the absence of co-factor(s). All incubations were performed in triplicate in three independent studies.
The concentration of the parent compound was quantified for all the incubations using UPLC analysis performed as described below. The ratio of remaining parent compound concentration between incubation sample (C compound) and the control without co-factor (C control) was calculated for each incubation time. Subsequently, the depletion curve of the parent compound [ln(C compound/C control)] against time was derived as described before (Jones and Houston [2004]; Obach [1999]; Obach and Reed-Hagen [2002]). The slope of the linear part of the depletion curve represents the elimination rate constant (k, min^−1) for elimination of the parent compound. Using the following equation, the in vitro clearance (CLint, in vitro) of the parent compound can be estimated: CLint, in vitro (µL/min/mg protein) = V (µL)/P (mg) × k (min^−1) (Obach [1999]; Sjögren et al. [2009]). V represents volume (µL) of incubation mixture and P is the protein amount (mg) in the mixture. The in vitro CLint value derived from incubations with all co-factors together in one mixture (approach 2) was compared with the sum of the CLint values derived from incubations with a single co-factor (approach 1). The in vitro CLint of the parent compound was scaled to a whole liver, assuming that the S9 protein concentration in the rat liver is 87 g/kg liver (Chiu and Ginsberg [2011]).
For BPA, the analytical method was slightly changed based on the method for E2. […]

Caco-2 = details: cited from earlier work
[2] = female, pH 7.4, female Sprague–Dawley rat liver S9, all co-factors (NADPH, UDPGA, PAPS, acetyl CoA) in one mixture, read-out: Female CLint
[3] = male, pH 7.4, male Sprague–Dawley rat liver S9, all co-factors (NADPH, UDPGA, PAPS, acetyl CoA) in one mixture, read-out: Male CLint
[4] = male, pH 7.4, male Sprague–Dawley rat liver S9, individual co-factor NADPH
[5] = male, pH 7.4, male Sprague–Dawley rat liver S9, individual co-factor PAPS
[6] = male, pH 7.4, male Sprague–Dawley rat liver S9, individual co-factor UDPGA
[7] = male, pH 7.4, male Sprague–Dawley rat liver S9, read-out: CLint, SUM of incubations with individual co-factors

| SMILES | CLint fold higher for female than for male rat liver S9 ([1]; all co-factors in one mixture) [fold] | microsomal CLint at 3 µM [1, 2] [µL/min/mg] | microsomal CLint at 3 µM [1, 3] [µL/min/mg] | CLint in liver S9 at 3 µM [1, 4] [µL/min/mg] | CLint in liver S9 at 3 µM [1, 5] [µL/min/mg] | CLint in liver S9 at 3 µM [1, 6] [µL/min/mg] | microsomal CLint at 3 µM [1, 7] [µL/min/mg] | Papp, Caco-2 (Caco-2; PBK model code, ref Yoshkawa et al. 2002) [x1E-6 cm/sec] | P app, Caco-2 (Caco-2; ref Yoshikawa et al. [2002]) [cm/s] | Female CLint ([1]; female Sprague–Dawley rat liver S9, all co-factors (NADPH, UDPGA, PAPS, acetyl CoA) in one mixture) [µl/min/mg protein] |
| --- | --- | --- | --- | --- | --- | --- | --- | --- | --- | --- |
| CC(C)(c1ccc(O)cc1)c1ccc(O)cc1 [BPA, bisphenol A] | 1.1 | 432 ± 12.5 | 392 ± 6.7 | 60 ± 4.8 | 3.4 ± 2.1 | 340 ± 7.8 | 403 ± 9.4 | 20 | 2e-05 | – |
| C[C@]12CC[C@@H]3c4ccc(O)cc4CC[C@H]3[C@@H]1CC[C@@H]2O [E2, 17β-estradiol] | – | 65.5 | 175 ± 13.3 | 155 ± 26.7 | 4.4 ± 1.6 | 23.3 ± 0.9 | 182 ± 26.8 | – | – | 65.5 ± 12.3 |
